From patent publication US12729192B2, “CDK9 inhibitor and use thereof” (PHARMABLOCK SCIENCES (NANJING), INC., priority 2020, dated 2026) come the findings set out here.

The target of one experiment is T1, CDK7 (Homo sapiens, UniProt P50613).
T1 construct: purchased Carna Biosciences, Inc
Nature of the experiment: CDK7 kinase activity inhibition (ADP-Glo). The experiment is classed as biochemical. The following applies: 10 μM ATP, 2 h at room temperature. For orientation: ADP-Glo turns the ADP formed in a reaction into a luminescent signal.

In another experiment the target is T2, CDK2 (Homo sapiens, UniProt P24941).
T2 construct: purchased Carna Biosciences, Inc
Nature of the experiment: CDK2 kinase activity inhibition (ADP-Glo). The experiment is classed as biochemical. The following applies: 10 μM ATP, 2 h at room temperature.

In the next experiment the target is CDK9 (Homo sapiens, UniProt P50750). In words: CDK9 kinase activity inhibition (ADP-Glo). The experiment is classed as biochemical. The following applies: 10 μM ATP, 2 h at room temperature.
The test system of another experiment is MOLM-13 cells. In words: Tumor cell proliferation inhibition experiment (CellTiter-Glo). The experiment is classed as cell-based. The following applies: Homo sapiens; acute myeloid leukemia cell line MOLM-13; 16 h incubation; CellTiter-Glo; read-out: MOLM-13 (nM) IC50, cell proliferation inhibition. An excerpt:
An acute myeloid leukemia (AML) cell line (MOLM-13) was purchased from NANJING COBIOER BIOSCIENCES CO., LTD. An RPMI1640 medium and a penicillin-streptomycin double-antibody were purchased from ThermoFisher (Waltham, MA, USA). Certified fetal bovine serum (FBS) was purchased from Biological Industries (Israel). A Corning 384-well cell culture plate was purchased from CORNING (USA). Cell-Titer Glo® was purchased from Promega Corporation (Madison, WI, USA).
To evaluate the ability of the synthetic compound to inhibit the proliferation of MOLM-13 cells, MOLM-13 cells at an exponential growth stage were inoculated at a density of 500,000 cell/mL in the RPMI1640 medium containing 20% bovine serum and 1% penicillin-streptomycin double-antibody, and the 384-well plate contained 20 μL per well and placed overnight in an 37° C., 5% CO2 incubator. Compound powder was dissolved in DMSO to prepare a storage mother liquor with a concentration of 2 mM, and 12 dilutions with three-fold gradient concentrations were further prepared. 1 μL of gradient-diluted DMSO solution was added to 99 μL of cell culture medium (the final maximum concentration of the compound in the assay was 10 uM and the final concentration of DMSO was 0.5%). 20 μL of compound solution in the medium was added at gradients to each cell-coated test well of the 384-well plate. After the compound solution was added, the 384-well plate was incubated for 16 h in a 37° C., 5% CO2 incubator. Cell viability was determined by quantifying ATPs present in test wells using the CellTiter-Glo kit from Promega (Madison, WI, USA). After 20 minutes of incubation, readings were obtained under a chemical luminescence procedure using Tecan's Spark multifunctional plate reader. The concentration (IC50 value) of the compound at which the cell survival rate was inhibited by 50% was determined using an S-shaped dosage response model (variable slope, four parameters) in Prism 7 (LaJolla, CA).
On the technique in general: ATP-based viability assays read luminescence as a measure of living cells.

In a further experiment the target is T3, CDK1 (Homo sapiens, UniProt P06493).
T3 construct: purchased Carna Biosciences, Inc
Nature of the experiment: CDK1 kinase activity inhibition (ADP-Glo). It counts as biochemical. As to conditions: 50 μM ATP, 2 h at room temperature. How it is done: CDK9 kinase was manufactured by the company or commercially available. CDK1, CDK2 and CDK7 were purchased from Carna Biosciences, Inc. ADP-Glo™ kit was purchased from Promega Corporation. Dithiothreitol (DTT), Tween-20, dimethylsulfoxide (DMSO), bovine serum albumin (BSA) and Tris base were obtained from Sigma at the available highest level of purity.
General procedures for CDK inhibition determination: The determination was performed in a buffer consisting of 50 μM DTT, 0.1% BSA, 40 mM Tris-HCl pH=7.5 and 20 mM MgCl2. The compound dissolved in DMSO and CDK enzymes were diluted with the buffer. 1 μL of the compound solution in 5% DMSO and 2 μL of the CDK enzyme solution were added to a white low-volume 384-well microtiter plate and incubated for 20 min at room temperature. Ultra pure ATP and the substrate polypeptide (purchased from GenScript Biotech Corporation) were diluted together into the buffer and added to a mixed solution of the compound and the enzyme, 2 μL per well. They were incubated for 2 h at room temperature.
After the reaction was completed, 5 μL of ADP-Glo™ reagent was added to each well and incubated for 40 min at room temperature, and then 10 μL of test reagent was added to each well and incubated for 30 mi at room temperature. Chemical luminescence values were measured by using a Tecan (Männedorf, Switzerland) multifunctional plate reader Spark for plate reading. The IC50 value of the inhibitor was obtained by fitting the chemical luminescence intensity ratio in the S-shaped dosage reaction curve using Prism 7 (La Jolla, 15 CA) relative to the concentration of the inhibitor.

Structures are written as SMILES.

CDK9, sequence (P50750 whole entry): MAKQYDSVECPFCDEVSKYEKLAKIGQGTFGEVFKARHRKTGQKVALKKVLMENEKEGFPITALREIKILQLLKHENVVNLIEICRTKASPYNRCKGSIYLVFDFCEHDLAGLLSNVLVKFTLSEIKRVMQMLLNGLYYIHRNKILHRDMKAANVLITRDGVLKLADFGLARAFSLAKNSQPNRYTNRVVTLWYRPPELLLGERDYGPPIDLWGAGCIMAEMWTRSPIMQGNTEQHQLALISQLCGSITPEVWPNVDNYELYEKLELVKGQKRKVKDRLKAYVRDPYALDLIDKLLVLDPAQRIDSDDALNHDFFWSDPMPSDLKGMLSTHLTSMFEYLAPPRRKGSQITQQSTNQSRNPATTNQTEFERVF
CDK9, sequence (O60563 whole entry partner): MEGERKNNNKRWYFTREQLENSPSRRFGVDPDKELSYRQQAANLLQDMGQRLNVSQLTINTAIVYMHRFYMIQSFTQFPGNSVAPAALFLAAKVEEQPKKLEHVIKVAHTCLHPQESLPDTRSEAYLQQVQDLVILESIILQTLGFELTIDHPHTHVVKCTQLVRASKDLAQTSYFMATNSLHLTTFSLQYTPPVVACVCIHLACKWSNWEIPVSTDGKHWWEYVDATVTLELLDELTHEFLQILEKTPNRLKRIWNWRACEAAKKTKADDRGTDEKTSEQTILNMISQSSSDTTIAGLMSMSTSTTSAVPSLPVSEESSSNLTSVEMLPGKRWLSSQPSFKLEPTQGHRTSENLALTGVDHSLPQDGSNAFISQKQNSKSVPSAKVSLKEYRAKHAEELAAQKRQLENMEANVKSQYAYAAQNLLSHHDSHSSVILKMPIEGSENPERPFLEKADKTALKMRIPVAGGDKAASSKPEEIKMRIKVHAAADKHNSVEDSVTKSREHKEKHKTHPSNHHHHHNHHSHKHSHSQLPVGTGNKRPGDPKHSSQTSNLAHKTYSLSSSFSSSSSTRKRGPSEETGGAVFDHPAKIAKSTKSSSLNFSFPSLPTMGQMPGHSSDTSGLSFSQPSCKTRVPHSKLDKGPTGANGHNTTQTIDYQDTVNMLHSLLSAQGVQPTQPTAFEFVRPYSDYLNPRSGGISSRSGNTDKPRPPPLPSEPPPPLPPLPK
T1 sequence (P50613 whole entry): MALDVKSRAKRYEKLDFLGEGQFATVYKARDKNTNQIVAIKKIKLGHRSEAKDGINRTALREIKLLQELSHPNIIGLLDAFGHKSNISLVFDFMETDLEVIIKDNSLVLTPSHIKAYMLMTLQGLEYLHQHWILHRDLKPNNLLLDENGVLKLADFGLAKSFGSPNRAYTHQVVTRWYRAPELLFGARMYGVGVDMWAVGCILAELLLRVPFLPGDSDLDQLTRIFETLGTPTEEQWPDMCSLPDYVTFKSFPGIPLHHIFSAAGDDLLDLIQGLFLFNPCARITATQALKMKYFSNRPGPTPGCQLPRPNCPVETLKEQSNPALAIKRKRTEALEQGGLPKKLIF
T1 sequence (P51946 whole entry partner): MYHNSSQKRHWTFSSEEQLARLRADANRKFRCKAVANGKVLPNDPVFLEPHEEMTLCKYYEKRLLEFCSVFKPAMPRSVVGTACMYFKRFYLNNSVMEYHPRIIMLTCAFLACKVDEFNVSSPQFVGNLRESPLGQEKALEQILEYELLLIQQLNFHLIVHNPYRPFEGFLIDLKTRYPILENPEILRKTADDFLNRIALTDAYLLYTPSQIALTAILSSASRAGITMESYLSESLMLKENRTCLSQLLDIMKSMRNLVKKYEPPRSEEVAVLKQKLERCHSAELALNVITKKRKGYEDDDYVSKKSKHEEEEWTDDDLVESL
T1 sequence (P51948 whole entry partner): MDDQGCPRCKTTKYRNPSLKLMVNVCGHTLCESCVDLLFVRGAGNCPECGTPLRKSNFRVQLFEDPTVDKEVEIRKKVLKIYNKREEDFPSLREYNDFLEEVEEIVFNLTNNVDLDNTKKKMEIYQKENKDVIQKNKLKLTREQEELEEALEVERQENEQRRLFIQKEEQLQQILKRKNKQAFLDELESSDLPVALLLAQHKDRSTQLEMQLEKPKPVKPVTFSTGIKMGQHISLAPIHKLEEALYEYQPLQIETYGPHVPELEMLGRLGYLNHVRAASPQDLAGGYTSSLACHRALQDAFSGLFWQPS
T3 sequence (P06493 whole entry): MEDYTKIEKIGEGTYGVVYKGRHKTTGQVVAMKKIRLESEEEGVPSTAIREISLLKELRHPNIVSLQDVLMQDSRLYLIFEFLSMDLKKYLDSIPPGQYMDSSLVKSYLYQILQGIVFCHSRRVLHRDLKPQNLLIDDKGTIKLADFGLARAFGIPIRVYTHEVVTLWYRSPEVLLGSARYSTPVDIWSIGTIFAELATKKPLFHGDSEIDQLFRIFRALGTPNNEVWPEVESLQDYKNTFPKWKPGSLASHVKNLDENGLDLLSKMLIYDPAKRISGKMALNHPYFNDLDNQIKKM
T3 sequence (P14635 whole entry partner): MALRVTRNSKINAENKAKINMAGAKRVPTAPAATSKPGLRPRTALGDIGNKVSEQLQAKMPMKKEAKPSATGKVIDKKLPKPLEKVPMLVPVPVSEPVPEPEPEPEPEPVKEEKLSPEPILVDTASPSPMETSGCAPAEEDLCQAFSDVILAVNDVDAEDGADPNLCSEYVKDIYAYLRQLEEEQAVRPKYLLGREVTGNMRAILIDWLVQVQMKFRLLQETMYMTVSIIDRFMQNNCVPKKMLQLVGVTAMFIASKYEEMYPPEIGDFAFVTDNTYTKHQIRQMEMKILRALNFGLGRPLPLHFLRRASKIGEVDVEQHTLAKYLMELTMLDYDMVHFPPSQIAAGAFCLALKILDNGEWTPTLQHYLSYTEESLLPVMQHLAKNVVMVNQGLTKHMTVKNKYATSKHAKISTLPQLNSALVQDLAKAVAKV

As to `Cc1ccc(Nc2cc(OC(F)(F)F)ccn2)nc1C(=O)N1CC(F)(F)CC[C@@H]1CN` [Compound 34, (R)-(2-(aminomethyl)-5,5-difluoropiperidin-1-yl)(3-methyl-6-((4-(trifluoromethoxy)pyridin-2-yl)amino)pyridin-2-yl)methanone], the IC50 amounted to 479 nM on CDK7; 30 nM against CDK2; 3 nM at CDK9; 63.1 nM in the experiment with MOLM-13 cells; 261 nM on CDK1.
The like results for `NC[C@H]1CCC(F)(F)CN1C(=O)c1nc(Nc2cc(OC(F)(F)F)ccn2)ccc1F` [Compound 67, (R)-(2-(aminomethyl)-5,5-difluoropiperidin-1-yl)(3-fluoro-6-((4-(trifluoromethoxy)pyridin-2-yl)amino)pyridin-2-yl)methanone] were, in that order, 656 nM, 61.2 nM, 6.8 nM, 66.8 nM and 140 nM.
